Experimental data reported in patent US20100227313A1, “Methods and Compositions for Determining Altered Susceptibility of HIV-1 to Protease Inhibitor Treatment” (priority 2007, published 2010).

Columns and labels:
[1] = tested on: HIV-1; assay: Resistance test vector (PHENOSENSE) phenotypic susceptibility assay, fold change in IC50, correlated with genotype (Fisher's Exact test, odds ratio); format: cell-based, human immunodeficiency virus type 1; details: 2862 clinical samples; FC relative to wild-type (NL4-3); FIG. 1
Excerpt: See Petropoulos et al., 2000, Antimicrob. Agents Chemother. 44:920-928; U.S. Pat. Nos. 5,837,464 and 6,242,187. PHENOSENSE™ is a phenotypic assay that achieves the benefits of phenotypic testing and overcomes the drawbacks of previous assays.
PHENOSENSE™ can obtain results with only one round of viral replication, thereby avoiding selection of subpopulations of virus that can occur during preparation of viral stocks required for assays that rely on fully infectious virus.
A resistance test vector (“RTV”) can then be constructed by incorporating the amplified viral gene sequences into a replication defective viral vector by using any method known in the art of incorporating gene sequences into a vector. In one embodiment, restrictions enzymes and conventional cloning methods are used. See Sambrook et al., 2001, Molecular Cloning: A Laboratory Manual, Cold Spring Harbor Laboratory, 3rd ed., NY; and Ausubel et al., 1989, Current Protocols in Molecular Biology, Greene Publishing Associates and Wiley Interscience, NY. In a preferred embodiment, ApaI and PinAI restriction enzymes are used. Preferably, the replication defective viral vector is the indicator gene viral vector (“IGVV”). In a preferred embodiment, the viral vector contains a means for detecting replication of the RTV. Preferably, the viral vector contains a luciferase expression cassette.
The assay can be performed by first co-transfecting host cells with RTV DNA and a plasmid that expresses the envelope proteins of another retrovirus, for example, amphotropic murine leukemia virus (MLV). Following transfection, viral particles can be harvested from the cell culture and used to infect fresh target cells in the presence of varying amounts of anti-viral drug(s). The completion of a single round of viral replication in the fresh target cells can be detected by the means for detecting replication contained in the vector. In a preferred embodiment, the completion of a single round of viral replication results in the production of luciferase. By monitoring the amount of, e.g., luciferase activity in the presence of the varying amounts of antiviral drug(s), a resistance curve can be constructed by plotting luciferase activity versus drug concentration. The susceptibility of an HIV, or population of HIV, can be determined by measuring the concentration of antiviral drug at which the luciferase activity detected is half-maximal. This number, the IC50, provides a standard and convenient measure of drug resistance.
Patient derived segment(s) corresponding to the HIV protease and reverse transcriptase coding regions were amplified by the reverse transcription polymerase chain reaction method (RT PCR) using viral RNA isolated from viral particles present in the plasma or serum of HIV infected individuals as follows. Viral RNA was isolated from the plasma or serum using oligo-dT magnetic beads (Dynal Biotech, Oslo, Norway), followed by washing and elution of viral RNA. The RT PCR protocol was divided into two steps. A retroviral reverse transcriptase (e.g. Moloney MuLV reverse transcriptase (Roche Molecular Systems, Inc., Branchburg, N.J.; Invitrogen, Carlsbad, Calif.), or avian myeloblastosis virus (AMV) reverse transcriptase, (Boehringer Mannheim, Indianapolis, Ind.) was used to copy viral RNA into cDNA. The cDNA was then amplified using a thermostable DNA polymerase (e.g. Taq (Roche Molecular Systems, Inc., Branchburg, N.J.), Tth (Roche Molecular Systems, Inc., Branchburg, N.J.), PRIMEZYME™ (isolated from Thermus brockianus, Biometra, Gottingen, Germany)) or a combination of thermostable polymerases as described for the performance of “long PCR” (Barnes, W.M., 1994, Proc. Natl. Acad. Sci, USA 91, 2216 20) (e.g. Expand High Fidelity PCR System (Taq+Pwo), (Boehringer Mannheim. Indianapolis, Ind.); GENEAMP XL™ PCR kit (Tth+Vent), (Roche Molecular Systems, Inc., Branchburg, N.J.); or […] II®, Clontech, Palo Alto, Calif.)

[2] = tested on: HIV protease; details: 2006, cited from earlier work; for effect of I47A mutation on susceptibility: de Mendoza et al.; for effect of L33F mutation in protease on susceptibility: Kozal et al.

## COC(=O)N[C@H](C(=O)N[C@@H](Cc1ccccc1)[C@@H](O)CN(Cc1ccc(-c2ccccn2)cc1)NC(=O)[C@@H](NC(=O)OC)C(C)(C)C)C(C)(C)C [ATV, atazanavir]
[1]
  correlation of FC in susceptibility with the FC in susceptibility for DRV: no correlation

## Cc1cccc(C)c1OCC(=O)N[C@@H](Cc1ccccc1)[C@@H](O)C[C@H](Cc1ccccc1)NC(=O)[C@H](C(C)C)N1CCCNC1=O [LPV, lopinavir]
[1]
  correlation of FC in susceptibility with the FC in susceptibility for DRV: no correlation
[2]
  effect of I47A mutation on susceptibility: reduced susceptibility
  effect of L33F mutation in protease on susceptibility: correlate with resistance

## CC(C)c1nc(CN(C)C(=O)N[C@H](C(=O)N[C@@H](Cc2ccccc2)C[C@H](O)[C@H](Cc2ccccc2)NC(=O)OCc2cncs2)C(C)C)cs1 [ritonavir]
[2]
  effect of L33F mutation in protease on susceptibility: correlate with resistance

## CC(C)(C)NC(=O)[C@@H]1C[C@@H]2CCCC[C@@H]2CN1C[C@@H](O)[C@H](Cc1ccccc1)NC(=O)[C@H](CC(N)=O)NC(=O)c1ccc2ccccc2n1 [saquinavir]
[2]
  effect of I47A mutation on susceptibility: hypersusceptibility
  effect of L33F mutation in protease on susceptibility: correlate with resistance
